“And” between values parts separate entries of the source, which are not always exact repeats. Equal values may be shown once.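 Compound exposure: 48 hours, 5 concentrations, 96-well plates. GI50: concentration for 50% inhibition of growth. TGI denotes the concentration required for complete inhibition of growth.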
Legend:
Assay in all cases: NCI anticancer screen, dose series, 48 h
ACHN renal = system: ACHN renal
COLO 205 colon = system: COLO 205 colon
HOP-62 NSCLC = system: HOP-62 NSCLC
MDA-MB-435 = system: MDA-MB-435
SK-MEL-2 melanoma = system: SK-MEL-2 melanoma
SK-MEL-28 melanoma = system: SK-MEL-28 melanoma
SNB-75 CNS = system: SNB-75 CNS
T-47D breast = system: T-47D breast

Row | SMILES | TGI (ACHN renal) | TGI (COLO 205 colon) | TGI (HOP-62 NSCLC) | TGI (MDA-MB-435) | TGI (SK-MEL-2 melanoma) | TGI (SK-MEL-28 melanoma) | TGI (SNB-75 CNS) | TGI (T-47D breast) | GI50 (ACHN renal) | GI50 (COLO 205 colon) | GI50 (HOP-62 NSCLC) [µM] | GI50 (MDA-MB-435) | GI50 (SK-MEL-2 melanoma) | GI50 (SNB-75 CNS) | GI50 (T-47D breast) | GI50 (SK-MEL-28 melanoma)
1 | CC1CC2CCCC(O)=C2C(=O)O1 (configuration not stated) | > 100 µM | > 100 µM | > 100 µM | > 100 µM | > 100 µM | > 100 µM | > 100 µM | > 100 µM | – | – | – | – | – | – | – | –
2 | CCCC(=O)Nc1cn(COC)c(C(=O)N2C[C@@H]3C[C@]34C2=CC(=O)c2[nH]cc(C)c24)n1 | 50 µM and 6.82 µM | 16.6 µM and 23.7 µM | 50 µM and 15.2 µM | 27.4 µM and 27.1 µM | 27.3 µM and 9.29 µM | 50 µM and 32.2 µM | 23.1 µM and 28.6 µM | 38.4 µM and 21.1 µM | 2.16 µM | 6.31 µM | 3.91 | 11.1 µM | 2.98 µM | 14.3 µM | 7.01 µM | –
3 | CCOc1ccc(/C=C2\N=C(c3ccc([N+](=O)[O-])cc3)OC2=O)cc1 | > 100 µM | > 100 µM | > 100 µM | > 100 µM | > 100 µM | > 100 µM | > 100 µM | > 100 µM | – | – | – | – | – | – | – | –
4 | CNCCOC(=O)/C=C1\CC[C@H]2[C@@H]([C@@H](O)C(=O)[C@@H]3[C@]2(C)CC[C@H](O)[C@]3(C)C(=O)OC)[C@H]1C | 0.785 µM | 3.04 µM | 0.595 µM | 1.45 µM | 4.57 µM | 2.61 µM | 1.74 µM | 1.67 µM | 0.25 µM | 1.55 µM | 0.241 | 0.368 µM | 1.79 µM | 0.396 µM | 0.33 µM | 1.06 µM
5 | NNC(=O)CNc1cccc(Br)c1 | > 100 µM | > 100 µM | > 100 µM | > 100 µM | > 100 µM | > 100 µM | > 100 µM | > 100 µM | – | – | – | – | – | – | – | –
6 | N=c1c2c(-c3ccccc3)c(-c3ccccc3)n(Cc3ccccc3)c2ncn1C1CCC(O)CC1 (configuration not stated) | 12.8 µM | 2.23 µM | 14.8 µM | 4.89 µM | 4.38 µM | 2.22 µM | 8.85 µM | 18.3 µM | 0.0653 µM | 0.417 µM | 0.261 | 0.346 µM | 1.08 µM | 0.92 µM | 0.911 µM | 0.624 µM
7 | Cc1nc(N)sc1N=Nc1ccccc1Br | > 86 µM | > 93 µM | 78.4 µM | 47.9 µM | 55.2 µM | > 88.1 µM | 37.5 µM | 57.2 µM | – | – | – | – | – | – | – | –
8 | S=c1[nH]c(=S)c2cc3ccccc3nc2[nH]1 | > 100 µM | > 100 µM | > 100 µM | > 100 µM | 84.7 µM | > 100 µM | > 100 µM | > 100 µM | > 100 µM | 20.3 µM | > 100 | 31.1 µM | 26.1 µM | > 100 µM | 11.1 µM | > 100 µM
9 | CCn1c(O)c(/C=N/NC(=O)C(C)c2ccc(CC(C)C)cc2)sc1=S (configuration not stated) | > 38.8 µM | 9.04 µM | > 50.7 µM | – | > 49.8 µM | > 45.8 µM | 0.757 µM | > 100 µM | 0.813 µM | 1.23 µM | 0.549 | – | 3.19 µM | 0.241 µM | 0.56 µM | 1 µM
10 | COc1cc(Cl)cc(-c2nn(-c3cccc(NC(=O)c4ccc(N5CCOCC5)c(C(F)(F)F)c4)c3)cc2-c2ccncc2)c1 | > 100 µM | > 100 µM | > 100 µM | > 100 µM | > 100 µM | > 100 µM | > 100 µM | > 100 µM | 7.31 µM | 22.2 µM | 62.5 | 43.6 µM | 21.1 µM | 2.08 µM | 10.4 µM | 14.8 µM
11 | CC(NCCC(c1ccccc1)c1ccccc1)c1ccccc1 (configuration not stated) | 12 µM | 2.85 µM | 3.31 µM | 7.76 µM | 3.77 µM | 3.26 µM | 10.9 µM | 3.29 µM | 3.32 µM | 1.53 µM | 1.36 | 2.54 µM | 1.9 µM | 2.79 µM | 1.59 µM | 1.76 µM
12 | COc1cc(N(CCC#N)CCC#N)ccc1/C(N=Nc1ccc(Cl)cc1)=N/NC(=O)c1cc(Br)ccc1O | > 150 µg/mL | 127 µg/mL | – | > 150 µg/mL | > 150 µg/mL | > 150 µg/mL | 95.1 µg/mL | > 150 µg/mL | 86.1 µg/mL | 41.7 µg/mL | – | > 150 µg/mL | 146 µg/mL | 25 µg/mL | 69.9 µg/mL | > 150 µg/mL
13 | Cc1cc(N[C@@H]2CCC[C@H](Nc3ccnc4cc(Cl)ccc34)C2)nc(N2CCCCCC2)n1 | 3.82 µM | 2.89 µM | 3.03 µM | 3.33 µM | 4.52 µM | 3.62 µM | 3.14 µM | 5.38 µM | 1.83 µM | 1.36 µM | 1.37 | 1.79 µM | 2.07 µM | 1.43 µM | 2.22 µM | 1.85 µM
14 | CC(=O)ON1CCCC(P(=O)(OCCSC(=O)C(C)(C)C)OCCSC(=O)C(C)(C)C)C1=O (configuration not stated) | 30.4 µM | > 100 µM | > 100 µM | 88.6 µM | 40 µM | 15.5 µM | 23.3 µM | > 100 µM | 1.75 µM | 3.88 µM | 3.21 | 3.02 µM | 4.47 µM | 1.4 µM | 2.08 µM | 1.56 µM
15 | Nc1ncn([C@@H]2O[C@H](CO)[C@@H](O)[C@H]2O)c(=O)n1 | 16.7 µM | 3.02 µM | 2.67 µM | – | 3.83 µM | 11.1 µM | 6.2 µM | – | 0.664 µM | 1.21 µM | 0.49 | – | 0.612 µM | 1.63 µM | – | 2.68 µM
16 | NC1CCN(Cc2ccccc2)CC1 | > 100 µM | > 100 µM | – | > 100 µM | > 100 µM | – | > 100 µM | > 100 µM | > 100 µM | > 100 µM | – | > 100 µM | > 100 µM | > 100 µM | > 100 µM | –
17 | COc1ccc(-c2nnc3n(C)c(=O)c4ccccc4n23)cc1N | > 100 µM | 4.44 µM | > 100 µM | 0.0799 µM | – | – | – | – | 17.3 µM | 0.0469 µM | 0.0482 | 0.0226 µM | – | – | – | –
18 | CCN(CC)CCNc1nc(N)c(C#N)c(C#N)c1C#N | > 10 µM | > 10 µM | > 10 µM | > 10 µM | – | > 10 µM | > 10 µM | > 10 µM | – | – | – | – | – | – | – | –
19 | COc1cc(N=Nc2ccc(O)c3ncccc23)c2ncccc2c1 | 14.2 µM | > 100 µM | – | > 100 µM | > 100 µM | > 100 µM | > 100 µM | > 100 µM | 2.3 µM | 5.65 µM | – | 4.64 µM | 8.4 µM | 4.53 µM | 3.23 µM | 4.06 µM
20 | COc1cnc2c(c1)C(=O)c1c-2n(CCCNC2=NCCS2)c(=O)c2cc([N+](=O)[O-])ccc12 | 1.15 µM | – | – | 2.29 µM | – | – | 1.81 µM | – | < 0.01 µM | – | – | 0.478 µM | – | 0.0329 µM | – | –
21 | CCOC(=O)Nc1cc2c(c(N)n1)N=C(c1ccccc1)CO2 | 31.7 µM | 0.885 µM | 24.3 µM | 0.0399 µM | > 100 µM | 77.7 µM | – | 73.3 µM | 0.986 µM | 0.102 µM | 0.45 | 0.0169 µM | 41.7 µM | – | 20.4 µM | 15.6 µM
22 | C=CCC1(c2ccc(OC)cc2)C=CC(=O)CC1 (configuration not stated) | > 100 µM | > 100 µM | > 100 µM | > 100 µM | – | > 100 µM | > 100 µM | > 100 µM | – | – | – | – | – | – | – | –
23 | COC(=O)c1c2c(c(C)[n+]([O-])c1C)C(=O)C=C(NCc1ccc(F)cc1)C2=O | – | 0.97 µM | 3.76 µM | 0.339 µM | 2.78 µM | 3.37 µM | 3.03 µM | 1.88 µM | – | 0.301 µM | 1.38 | 0.173 µM | 1.11 µM | 1.65 µM | 0.288 µM | 1.1 µM
24 | COC(=O)c1ccc2c(c1)C(=O)c1c-2n(CCCN=[N+]=[N-])c(=O)c2cc(OC)c(OC)cc12 | > 100 µM | > 100 µM | > 100 µM | > 100 µM | > 100 µM | > 100 µM | > 100 µM | – | > 100 µM | > 100 µM | > 100 | > 100 µM | > 100 µM | 8.24 µM | – | > 100 µM
25 | Cc1nc(Nc2cccnc2)sc1C(=O)/C=C/c1ccc(F)cc1 | – | 8.86 µM | 7.6 µM | 11.2 µM | 9.03 µM | 21.4 µM | 67.1 µM | > 100 µM | – | 2.81 µM | 2.61 | 2.71 µM | 2.86 µM | 3.42 µM | 2.25 µM | 3.72 µM
26 | CC(=O)Nc1ccc(-c2csc(Nc3cccc(-c4csc(C)n4)c3)n2)cc1 | 22.6 µM | > 50 µM | 15 µM | – | > 27.3 µM | > 37.3 µM | – | > 43.2 µM | 1.87 µM | 1 µM | 3.02 | 0.23 µM | 8.03 µM | – | 2.65 µM | 7.32 µM

— PubChem BioAssay (NCI)
